Settings: Capillary rise

COC [dimethyl ether]
Settings | surface tension liquid-gas [mN/m]
214 K | 24.45
220 K | 23.51
225 K | 22.69
230 K | 21.87
235 K | 21.15
240 K | 20.43
245 K | 19.7
250 K | 18.92
255 K | 18.15
260 K | 17.39
265 K | 16.62
270 K | 15.93
275 K | 15.19
280 K | 14.47
285 K | 13.73
290 K | 13.02
295 K | 12.28
300 K | 11.57
305 K | 10.85
315 K | 9.497
320 K | 8.813
325 K | 8.137
330 K | 7.476
335 K | 6.814
340 K | 6.164
345 K | 5.528
350 K | 4.899
355 K | 4.307
360 K | 3.707
365 K | 3.142
370 K | 2.575
375 K | 2.042
380 K | 1.516
385 K | 1.054
390 K | 0.614

CCCC [butane]
Settings | surface tension liquid-gas [mN/m]
278.15 K | 14.57
283.15 K | 13.96
288.15 K | 13.37
293.15 K | 12.79
298.15 K | 12.17
303.15 K | 11.53
308.15 K | 10.94
313.15 K | 10.35
318.15 K | 9.851
323.15 K | 9.286
328.15 K | 8.705
333.15 K | 8.14
338.15 K | 7.593
343.15 K | 7.043
348.15 K | 6.516
353.15 K | 5.991
358.15 K | 5.479
363.15 K | 4.981
368.15 K | 4.483
373.15 K | 4.003
378.15 K | 3.515
383.15 K | 3.049
388.15 K | 2.578
393.15 K | 2.091
398.15 K | 1.679
403.15 K | 1.29
408.15 K | 0.923
413.15 K | 0.583
417.15 K | 0.341
419.75 K | 0.186
420.35 K | 0.157
420.85 K | 0.129
421.08 K | 0.118
421.48 K | 0.1

From the NIST ThermoML archive (doi:10.1016/j.fluid.2016.01.001)
